This passage reports Kd results from paper PMC12658050 (Scientific Reports, 2025).

This experiment addresses cyclin B1 (CCNB1) (Homo sapiens, UniProt P14635). Description: SPR. Format: binding.

Chain of cyclin B1 (CCNB1) (P14635 whole entry): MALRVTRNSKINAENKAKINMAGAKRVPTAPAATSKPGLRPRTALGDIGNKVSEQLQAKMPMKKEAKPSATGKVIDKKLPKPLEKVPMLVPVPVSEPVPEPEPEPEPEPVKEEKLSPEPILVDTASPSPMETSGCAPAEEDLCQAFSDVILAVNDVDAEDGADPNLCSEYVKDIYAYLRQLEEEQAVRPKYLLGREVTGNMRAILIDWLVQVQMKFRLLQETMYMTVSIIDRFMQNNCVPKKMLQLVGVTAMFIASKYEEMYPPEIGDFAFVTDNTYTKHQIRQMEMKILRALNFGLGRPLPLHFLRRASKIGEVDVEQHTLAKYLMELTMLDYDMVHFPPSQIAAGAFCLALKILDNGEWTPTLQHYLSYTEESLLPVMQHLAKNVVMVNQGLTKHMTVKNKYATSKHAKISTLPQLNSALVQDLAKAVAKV

Take `O=c1cc(-c2ccc(O)c(O)c2)oc2cc(O)cc(O)c12` [Luteolin, 3′,4′,5,7-tetrahydroxyflavone]: the Kd is around 36.7 µM.
